According to PMC10848004 (Saudi Pharmaceutical Journal : SPJ, 2024):

Legend:
[1] = test system: glaucomatous rabbit eye model; assay: Antiglaucoma activity in vivo, IOP lowering, topical; conditions: 1 % concentration, at 1 h post-administration
CYP2D6 = CYP2D6 (Homo sapiens, UniProt P10635); assay: CYP inhibition in HLM, CYP2D6; format: in vitro ADME
CYP2D6, sequence (P10635 whole entry): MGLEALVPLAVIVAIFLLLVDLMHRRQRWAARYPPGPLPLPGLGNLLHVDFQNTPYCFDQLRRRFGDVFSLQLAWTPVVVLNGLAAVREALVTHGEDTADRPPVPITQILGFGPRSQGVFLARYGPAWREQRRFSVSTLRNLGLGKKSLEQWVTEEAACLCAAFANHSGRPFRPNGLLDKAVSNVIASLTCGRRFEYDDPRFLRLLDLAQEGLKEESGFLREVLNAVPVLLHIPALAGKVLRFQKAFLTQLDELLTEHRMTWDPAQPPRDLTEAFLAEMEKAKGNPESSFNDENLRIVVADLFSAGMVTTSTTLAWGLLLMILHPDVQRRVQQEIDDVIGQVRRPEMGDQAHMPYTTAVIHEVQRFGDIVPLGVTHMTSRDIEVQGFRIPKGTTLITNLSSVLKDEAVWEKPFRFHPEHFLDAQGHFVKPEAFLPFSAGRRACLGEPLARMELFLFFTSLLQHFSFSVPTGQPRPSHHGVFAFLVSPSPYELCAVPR

SMILES | maximal intraocular pressure lowering effect [1] | IC50 (CYP2D6) [nM]
CCN[C@H]1CN(CCCOC)S(=O)(=O)c2sc(S(N)(=O)=O)cc21 [BRZ, brinzolamide] | around 5 mm Hg | 
COc1ccc2c(c1)[C@]13CCCC[C@@H]1[C@H](C2)N(C)CC3 [Dextromethorphan] |  | 1340
